Assays:
[1] = system: S. aureus D14906 (Methicillin-Resistant; MRSA); experiment: BOCILLIN-FL binding after NaOH treatment (harsh pretreatment), oil blend separation
Protocol: (§1) Two experimental approaches were used to test BOCILLIN™-FL (Molecular Probes, Invitrogen) binding to S. aureus: (1) treating cells with sodium hydroxide (NaOH), neutralizing, adding BOCILLIN™-FL, then separating the cells (harsh pretreatment); and (2) culturing cells with BOCILLIN™-FL, then separating the cells (metabolic labeling).
(§2) For the first method, S. aureus strains ATCC 25923 (Methicillin-Sensitive; MSSA) and D14906 (Methicillin-Resistant; MRSA) were cultured until exponential growth (6 hours) in tryptic soy broth (TSB). Samples of each suspension (0.9 ml in TSB) and 0.1 N NaOH (0.1 ml; ±20 μl 7.5% TRITON® X100-R) were vortexed for 5 seconds, then either neutralized immediately or after 1 minute by adding 1 M KH2PO4 (0.125 ml) and vortexing for 5 seconds. BOCILLIN™-FL (15 μl of 1.0 mg/ml) was added to the suspension, which was then vortexed, and incubated for 5 minutes at room temperature. Unbound BOCILLIN™-FL was removed by centrifuging the mixture over 0.2 ml of an oil blend optimized to separate microorganisms from culture media (1.0 part of Type DF microscope immersion oil+0.875 parts of Drakeol 5 mineral oil) at 10,000 rpm for 1 minute. The supernatant and oil layer were removed and the pellet resuspended in 3.0 ml PBS, pH 7.4. The sample was scanned in the FluoroLog-3 system at an excitation wavelength of 490 nm and the fluorescence emission at 510 nm was recorded.

[2] = system: S. aureus ATCC 25923 (Methicillin-Sensitive; MSSA); experiment: as above; settings: for MSSA/MRSA Ratio: MSSA (25923)/MRSA (D14906); for BOCILLIN-FL binding, fluorescence emission at 510 nm (excitation 490 nm): MSSA (25923)
Protocol: as §1, §2

Question: Cc1cc(C)n2c1C=C1C=CC(CCC(=O)Nc3ccc(OCC(=O)N[C@@H]4C(=O)N5[C@@H]4SC(C)(C)[C@@H]5C(=O)[O-])cc3)=[N+]1[B-]2(F)F.[Na+] [BOCILLIN™-FL] was tested. Which “BOCILLIN-FL binding, fluorescence emission at 510 nm (excitation 490 nm)” value (from here on “BOCILLIN-FL binding”) ([1]; a = 5″ at pH 12) did it give?
Answer: The value was 1.6 × 10^6.

Question: What about the “BOCILLIN-FL binding” value ([1]; b = 60″ at pH 12) of the same compound?
Answer: Its value is 0.9 × 10^6.

Question: And the “BOCILLIN-FL binding” value ([1]; c = 5″ at pH 12 + TX100)?
Answer: Its value is 0.6 × 10^6.

Question: And the “BOCILLIN-FL binding” value ([1]; d = 60″ at pH 12 + TX100)?
Answer: Its value is 0.4 × 10^6.

Question: And the “MSSA/MRSA Ratio” value ([2]; a = 5″ at pH 12)?
Answer: Its value is 2.3.

Question: What about the “MSSA/MRSA Ratio” value ([2]; b = 60″ at pH 12) of the same compound?
Answer: The value was 1.1.

Question: What about the “MSSA/MRSA Ratio” value ([2]; c = 5″ at pH 12 + TX100) of the same compound?
Answer: Its value is 1.5.

Question: What about the “MSSA/MRSA Ratio” value ([2]; d = 60″ at pH 12 + TX100) of the same compound?
Answer: Its value is 2.0.

Question: And the “BOCILLIN-FL binding” value ([2]; a = 5″ at pH 12)?
Answer: The value was 3.7 × 10^6.

Question: What about the “BOCILLIN-FL binding” value ([2]; b = 60″ at pH 12) of the same compound?
Answer: The value was 1.0 × 10^6.

Question: And the “BOCILLIN-FL binding” value ([2]; c = 5″ at pH 12 + TX100)?
Answer: The value was 0.9 × 10^6.

Question: What about the “BOCILLIN-FL binding” value ([2]; d = 60″ at pH 12 + TX100) of the same compound?
Answer: The value was 0.8 × 10^6.

From patent US10988792B2, “Methods for antimicrobial resistance determination” (bioMerieux, Inc., priority 2009, dated 2021)
